This passage reports inhibition and IC50 results from ChEMBL document CHEMBL5352382, “Synthesis and evaluation of imidazo[1,2-a]pyrazine derivatives as small molecule Gαq/11 inhibitors against uveal melanoma” (Eur J Med Chem, 2022).

Assay [1] addresses GNAQ/GNA11 (Homo sapiens) (UniProt P50148+P29992). The experiment in a line: Inhibition of Galphaq/11 (unknown origin) expressed in CHO-M1 cells at 10 uM preincubated for 1 hr followed by carbachol stimulation for 30 mins and measured after 1 hr by IP1 accumulation based HTRF assay relative to control. It counts as cell-based. The conditions noted are these: time 150.0 min.
Assay [2] can be described thus: Antiproliferative activity against human MP41 cells assessed as reduction in cell viability measured after 72 hrs by CCK-8 method. It counts as functional, cell-based. The following applies: MP41, 72 h.
Assay [3] is described as follows: Antiproliferative activity against human 921 cells assessed as reduction in cell viability measured after 72 hrs by CCK-8 method. It counts as functional, cell-based. The following applies: Homo sapiens, 921, 72 h.

Consider `CC[C@H](C)[C@H](N)C(=O)N1CCn2cc(-c3cccc(Cl)c3)nc2[C@@H]1CC1CCCCC1`, for which the inhibition in assay [1] amounted to 26.2%. Further, the IC50 in assay [2] came to 11.2 µM; in assay [3] it was 10 µM.
For `CC[C@H](C)[C@H](N)C(=O)N1CCn2cc(-c3ccc4c(c3)CCCC4)nc2[C@@H]1C(C)C`, in that order: 9.4%, 19.8 µM and 13 µM.
Take `CC[C@H](C)[C@H](N)C(=O)N1CCn2cc(-c3cccc(OC(F)(F)F)c3)nc2[C@@H]1CC1CCCCC1`: the inhibition in assay [1] was found to be 12.4%. Also, the IC50 in assay [2] and in assay [3] was over 40 µM throughout.
Take `CC[C@H](C)[C@H](N)C(=O)N1CCn2cc(-c3cccc(Cl)c3Cl)nc2[C@@H]1CC1CCCCC1`: in assay [1], the inhibition came out at 19.9%. Besides, the IC50 in assay [2] was found to be 9.2 µM; in assay [3], 13.8 µM.
`CC[C@H](C)[C@H](N)C(=O)N1CCn2cc(-c3ccc4c(c3)CCCC4)nc2[C@@H]1CC` registered an inhibition in assay [1] of 11.5%. Besides, the IC50 was 30.2 µM in assay [2] and 22.3 µM in assay [3].
For `CC[C@H](C)[C@H](N)C(=O)N1CCn2cc(-c3ccc4c(c3)CCCC4)nc2[C@H]1CC(C)C`, in that order: 3.6%, 13.9 µM and 8.3 µM.
In the same order, the values of `c1cc2c(cc1-c1cn3c(n1)[C@H](CC1CCCCC1)N(CCN1CCCCC1)CC3)CCCC2` are 6.8%, 12.8 µM and 6.8 µM.
In the same order, the values of `CC[C@H](C)[C@H](N)C(=O)N1CCn2cc(-c3ccccc3)nc2[C@@H]1CC1CCCCC1` are 26.6%, 24.1 µM and 10.5 µM.
In the case of `CC[C@H](C)[C@H](N)C(=O)N1CCn2cc(-c3ccc4c(c3)OCO4)nc2[C@@H]1CC1CCCCC1`, the inhibition in assay [1] came to 20.2%. For the same compound, the IC50 in assay [2] was 12.8 µM; in assay [3], 18.5 µM.
With `CCC[C@H](N)CN1CCn2cc(-c3ccc4c(c3)CCCC4)nc2[C@@H]1CC1CCCCC1`, the inhibition in assay [1] is 15.9%. Further, the IC50 in assay [2] is 9 µM; in assay [3], 2.8 µM.
`CC[C@H](C)[C@H](N)C(=O)N1CCn2cc(-c3ccc4ccccc4c3)nc2[C@@H]1CC1CCCCC1` registered an inhibition in assay [1] of 13.1%. Further, the IC50 in assay [2] worked out at 15.5 µM; in assay [3], 18.8 µM.
For `CC[C@H](C)[C@H](N)C(=O)N1CCn2cc(-c3cccc(F)c3)nc2[C@@H]1CC1CCCCC1`, in that order: 17.8%, 19.8 µM and 5 µM.
`CC[C@H](C)[C@H](N)C(=O)N1CCn2cc(-c3cc(F)cc(Cl)c3)nc2[C@@H]1CC1CCCCC1` returned an inhibition in assay [1] of 16.8%. For the same compound, the IC50 in assay [2] turned out to be 10.9 µM; in assay [3] it was 12.9 µM.
As for `CC[C@H](C)[C@H](N)C(=O)N1CCn2cc(-c3ccccc3C)nc2[C@@H]1CC1CCCCC1`, the inhibition in assay [1] stood at 15%. Further, the IC50 was determined as 7.1 µM in assay [2] and 8.8 µM in assay [3].
Take `CC[C@H](C)[C@H](N)C(=O)N1CCn2cc(-c3cccc(C#N)c3)nc2[C@@H]1CC1CCCCC1`: the inhibition in assay [1] worked out at 20.8%. The IC50 was determined as 9.9 µM in assay [2] and 34.5 µM in assay [3].
Regarding `CC[C@H](C)[C@H](N)C(=O)N1CCn2cc(-c3cccc(Cl)c3OC)nc2[C@@H]1CC1CCCCC1`, the inhibition in assay [1] worked out at 24.2%. In addition, the IC50 in assay [2] stood at 7.9 µM; in assay [3], 11.3 µM.
In the same order, the values of `CC[C@H](C)[C@H](N)C(=O)N1CCn2cc(-c3cccc(N)c3)nc2[C@@H]1CC1CCCCC1` are 10.8%, over 40 µM and over 40 µM.
The compound `CC[C@H](C)[C@H](N)C(=O)N1CCn2cc(-c3cccc(C(=O)OC)c3)nc2[C@@H]1CC1CCCCC1` registered an inhibition in assay [1] of 4.1%. For the same compound, the IC50 in assay [2] came to 16.2 µM; in assay [3], 25 µM.
As to `CC[C@H](C)[C@H](N)C(=O)N1CCn2cc(-c3ccc(Cl)c(C)c3)nc2[C@@H]1CC1CCCCC1`, the inhibition in assay [1] amounted to 7.4%. In addition, the IC50 worked out at 5.8 µM in assay [2] and 8.2 µM in assay [3].
In turn, `CC[C@H](C)[C@H](N)C(=O)N1CCn2cc(-c3cccc(C)c3C)nc2[C@@H]1CC1CCCCC1` showed an inhibition in assay [1] of 13.7%. Further, the IC50 in assay [2] was determined as 12.8 µM; in assay [3] it was 7 µM.
In assay [1], `CC[C@H](C)[C@H](N)C(=O)N1CCn2cc(-c3ccc4c(c3)CCCC4)nc2[C@@H]1C1CCCCC1` came in with an inhibition of 10.4%. The IC50 in assay [2] amounted to 8.4 µM; in assay [3], 9.3 µM.
In assay [1], `CC[C@H](C)[C@H](N)C(=O)N1CCn2cc(-c3cccc(S(C)(=O)=O)c3)nc2[C@@H]1CC1CCCCC1` gave an inhibition of 13%. Besides, the IC50 in assay [2] and in assay [3] was over 40 µM in each case.
In assay [1], `CC[C@H](C)[C@H](N)C(=O)N1CCn2cc(-c3cccc(I)c3)nc2[C@@H]1CC1CCCCC1` returned an inhibition of 19.4%. Besides, the IC50 in assay [2] was 18.1 µM; in assay [3] it was 9.1 µM.
Consider `CC[C@H](C)[C@H](N)C(=O)N1CCn2cc(-c3cc(Cl)cc(Cl)c3)nc2[C@@H]1CC1CCCCC1`, for which, in assay [1], the inhibition stood at 12.8%. Besides, the IC50 is 10.9 µM in assay [2] and 10.1 µM in assay [3].
Compound `CC[C@H](C)[C@H](N)C(=O)N1CCn2cc(-c3ccccc3Cl)nc2[C@@H]1CC1CCCCC1` displayed an inhibition in assay [1] of 24.4%. Moreover, the IC50 amounted to 11.6 µM in assay [2] and 7.9 µM in assay [3].
With `c1cc2c(cc1-c1cn3c(n1)[C@H](CC1CCCCC1)N(CCNC1CCCC1)CC3)CCCC2`, in assay [1], the inhibition was determined as 10.8%. Also, the IC50 in assay [2] came to 9.7 µM; in assay [3] it was 6.4 µM.
`CC[C@H](C)[C@H](N)C(=O)N1CCn2cc(-c3cccc(Br)c3)nc2[C@@H]1CC1CCCCC1`: the inhibition in assay [1] stood at 21.9%. The IC50 worked out at 10.6 µM in assay [2] and 8.4 µM in assay [3].
As to `CC[C@H](C)[C@H](N)C(=O)N1CCn2cc(-c3cc(Cl)c(Cl)c(Cl)c3)nc2[C@@H]1CC1CCCCC1`, the inhibition in assay [1] was 13.2%. For the same compound, the IC50 in assay [2] was 7.8 µM; in assay [3], 5.9 µM.
For `CCC[C@H]1c2nc(-c3ccc4c(c3)CCCC4)cn2CCN1C(=O)[C@@H](N)[C@@H](C)CC`, in that order: 5.2%, 18.4 µM and 12.6 µM.
For `CC(C)(C)NCCN1CCn2cc(-c3ccc4c(c3)CCCC4)nc2[C@@H]1CC1CCCCC1`, in that order: 6.9%, 8.7 µM and 5.2 µM.
Turning to `CN(C)CCN1CCn2cc(-c3ccc4c(c3)CCCC4)nc2[C@@H]1CC1CCCCC1`, in assay [1], the inhibition stood at 17.1%. Further, the results for the IC50 in assay [2] and in assay [3] were 9.3 µM and 4.9 µM, respectively.
In the same order, the values of `CC[C@H](C)[C@H](N)C(=O)N1CCn2cc(-c3cccc([N+](=O)[O-])c3)nc2[C@@H]1CC1CCCCC1` are 17.5%, 10.1 µM and 12.2 µM.
`CC[C@H](C)[C@H](N)C(=O)N1CCn2cc(-c3ccc(Cl)cc3)nc2[C@@H]1CC1CCCCC1` gave an inhibition in assay [1] of 26.5%. The IC50 was 10.1 µM in assay [2] and 9.4 µM in assay [3].
For `CC[C@H](C)[C@H](N)C(=O)N1CCn2cc(-c3ccc(Cl)c(Cl)c3)nc2[C@@H]1CC1CCCCC1`, in that order: 13.2%, 9.9 µM and 6.6 µM.
